From ChEMBL document CHEMBL3045076, “Influence on Insecticidal Activity of the 3-(3,4-Methylenedioxyphenyl) Group in the 1,4-Benzodioxanyl Moiety of Haedoxan” (1992)
Activity calls are given as the source filed them. The rule behind the calls is not given here.

Columns and labels:
Musca domestica [1] = test: Insecticidal activity against Musca domestica (house fly) assessed as mortality measured per fly; type: functional
Musca domestica [2] = test: Insecticidal activity against Musca domestica (house fly) assessed as increase in mortality; type: functional, organism-based

Structure (SMILES) | LD50 (Musca domestica [1]) | Activity (Musca domestica [2])
COC[C@H]1Oc2cc([C@H]3OC[C@]4(O)[C@@H](Oc5c(OC)cccc5OC)OC[C@H]34)c(OC)cc2O[C@@H]1C (mixture of isomers) | 1 µg | 
COC[C@H]1Oc2cc([C@H]3OC[C@]4(O)[C@@H](Oc5c(OC)cccc5OC)OC[C@H]34)c(OC)cc2O[C@H]1C (mixture of isomers) |  | inactive
COC[C@H]1Oc2cc([C@H]3OC[C@]4(O)[C@@H](Oc5c(OC)cc6c(c5OC)OCO6)OC[C@H]34)c(OC)cc2O[C@@H]1c1ccc2c(c1)OCO2 [(+)-HAEDOXAN A] | 0.00025 µg | 
CCCC[C@H]1Oc2cc(OC)c([C@H]3OC[C@]4(O)[C@@H](Oc5c(OC)cccc5OC)OC[C@H]34)cc2O[C@@H]1COC (mixture of isomers) | 1 µg | 
